Assay results as given in patent US20040101521A1, “Iron sequestration or elimination to reduce neurodegeneration or Parkinsons disease progression” (The Buck Institute for Research on Aging, priority 2002, published 2004).

What was measured:
[1] = lipophilic; cited from earlier work
monoamine oxidase-B = test: MAO-B activity in brain homogenates; type: in vivo, mouse; settings: CQ-fed, n=4
Method: Brain homogenates were analyzed by the toulene extraction method using 10 μM 14-C labeled PEA as substrate (NEN, […]) as previously described (Wei et al. (1996) J. Neurosci. Res. 46: 666-673; Wei et al. (1997) J. Neurosci. Res. 50: 618-626). Values are reported as cpm/μg protein.

[2] = system: MPTP-mediated oxidative stress; test: Slot blot of 4-HNE-protein conjugates and protein carbonyls in SN after MPTP; type: in vivo, mouse; settings: CQ pretreated animals, 24 hrs after MPTP, n=6
Method: SN were dissected and homogenized in 10 mM HEPES-KOH, pH 7.2, 2 mM EDTA, 0.1% CHAPS, 5 mM dithiothreitol (DTT), 1 mM phenylmethylsulfonyl fluoride, 10 μg/ml pepstatin A, 10 μg/ml aprotinin, and 20 μg/ml leupeptin (Nicholson et al. (1995) Nature 376: 37-43). 15 μg of total protein from each sample was either run on a 15% SDS-PAGE gel (BioRad) and transferred to nitrocellulose membrane or directly slotted onto membrane. […] Autoradiography was performed with enhanced chemiluminescence (Amersham Pharmacia). For 4HNNE-protein conjugates and protein carbonyls, relative optical band density were quantified using a Chemilmager 5500 (Alpha Innotech Corporation). Reported values are the results of three independent experiments.

plaque formation = settings: Cherny et al. 2001; cited from earlier work
[3] = Yassin et al. 2000; cited from earlier work
[4] = Total SN iron content by mass spectrometry and MRI in CQ-fed mice; type: in vivo, mouse; settings: CQ 30 mg/kg daily oral gavage, 8 weeks, C57B1 mice
Method: Mice were housed according to standard animal care protocols, fed ad libitum, kept on a 12-hr light/dark cycle and maintained in a pathogen-free environment in the Buck Institute Vivarium. Animals used for studies were young adults (2-6 months of age). […] For CQ studies, C57B1 mice were obtained from Jackson Labs and randomized for therapy trials. CQ was suspended in 0.05% carboxymethylcellulose (Sigma) and delivered via oral gavage at a daily dosage of 30 mg/kg as previously described for a period of 8 weeks (Cherny et al. (2001) Neuron 30: 665-676); controls received vehicle alone.
MRI studies were performed using a Bruker AMX500 11.7 tesla MRI system as previously described (Gilissen et al. (1998) Am. J. Primatol. 45: 291-299). Brains were fixed as described above and MRI performed in the coronal plane. Comparisons of SN hypointensity (dark area) on T2-weighted MR samples encompassing SNc, SNr, and red nucleus were performed (IPLab Spectrum, Scientific Image Processing from Scanalytics, Inc.)(Morgan et al., 1998). Intensity was normalized using cortical white matter as control.
SN was dissected, snap frozen in liquid nitrogen, lypholized and dry weight/tissue measured. Preweighed lypholized samples were next taken up in 0.1 ml of concentrated nitric acid (Aristar, BDH) and allowed to digest overnight. […]

[5] = system: MPTP-induced oxidative stress; test: SN GSH levels after MPTP; type: in vivo, mouse; settings: CQ pretreated animals, 24 hrs after MPTP, n=6
Method: Following MPTP or saline injection, GSH levels were measured in the SN by the method of Griffith (Griffith (1980) Anal. Biochem. 106; 207-212).

[6] = Phase II, similar dosage, with B12 supplementation; cited from earlier work
[7] = system: MPTP-induced dopaminergic SN cell loss; test: Stereological TH+ SN neuron counts after MPTP; type: in vivo, mouse
Method: Neuronal counts were performed on TH+ positive SN neurons using the unbiased dissector method (West (1993) Neurobiol. Aging 14: 275-285). Fixed coronal brain sections (40 μm) were immunostained with TH antibody (1:500 dilution, Chemicon), coverslipped in aqueous medium and TH+ cells counted from a total of 15-20 sections in each field per brain (i.e. every second section) at a magnification of 100× using the optical fractionator approach.
(§1) Animals were injected with either 15 mg/kg body weight MPTP or saline every 2 hrs, 4 doses. Dopamine, DOPAC, and HVA or MPP+ from dissected striata were analyzed by I-PLC using a 5 micrometer C-18 reverse phase column and precolumn (Brownlee Labs) followed by electrochemical detection with a glassy carbon electrode (Klivenyi et al. (2000) J. Neurosci. 20: 1-7).

MPTP-induced toxicity = test: Striatal dopamine, DOPAC and HVA by HPLC after MPTP; type: in vivo, mouse
Method: as §1

[8] = Open field analysis of spontaneous motor activity; type: in vivo, mouse; settings: mice fed CQ up to 8 weeks vs. saline-fed, n=8
Method: 6-8 mice in each category were tested. Behavioral parameters were monitored in a Coulbourn Instrument Tru Scan activity monitor. Motor activities were recorded every 100 ms for a 10 minute period. Tru Scan 99 software was used to generate experimental protocols and to acquire and store the data. The data was exported to EXCEL and analyzed via one way ANOVA.

[9] = mouse, in vivo; cited from earlier work

For Oc1c(I)cc(Cl)c2cccnc12 [CQ, 5-chloro-7-iodo-8-hydroxyquinoline], the Blood-brain barrier passage [1] is given as “freely crosses the blood-brain barrier”, the MAO-B activity (monoamine oxidase-B) is given as 4500±950 cpm/μg protein and the “Change in 4-HNE-protein conjugates in SN following MPTP” value [2] is given as “no significant changes”. For the same compound, the “Change in protein carbonyl levels in SN following MPTP” value [2] was “no significant changes”, the “Plaque formation and behavioral declines in AD transgenic mouse model” value (plaque formation) was “inhibit plaque formation and accompanying behavioral declines” and the “Depletion in systemic iron levels” value [3] was “does not result in depletion”. The “Levels of brain and serum vitamin B12” value [3] was “lower levels”, the “Reduction of total SN iron levels, CQ-fed vs. saline-fed animals” value [4] was “approximately 30%” and the “Change in SN GSH following MPTP” value [5] was “no significant changes”. The “Adverse effects attributable to CQ administration” value [6] was “No adverse effects”, the “Decrease in SN TH+ cell numbers following MPTP” value ([7]; CQ-fed animals, 7 days after MPTP) was 25% and the “SN TH+ cell numbers” value ([7]; CQ-fed, MPTP-treated, n=5) was 11,462±915. For the same compound, the “Difference in striatal dopamine levels, saline vs. CQ-fed” value (MPTP-induced toxicity; absence of MPTP treatment) was “No significant difference”, the “Loss of striatal dopamine following MPTP” value (MPTP-induced toxicity; animals pretreated with CQ, 7 days after MPTP) was 41% and the “Adverse behavioral effects in open field tests” value [8] was “no significant signs of adverse behavioral effects”. The “Toxicity of the compound in mice” value [9] was “lack of toxicity”.
